This note sets out measurements from publication PMC12670405, “Second-Generation AURKA-Targeting PROTACs: Structural Optimization toward in Vivo Degradation in Neuroblastoma” (Journal of Medicinal Chemistry, 2025).

The structures appear in SMILES notation.

The nature of one data set: Plasma stability assay. It counts as in vitro ADME, CD-1 mouse. Conditions: for half-life at 1 μM: CD-1 mouse plasma, 37 °C, read-out: plasma t1/2. In a few lines: (§1)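 Compounds incubated at 37 °C: CD-1 mouse plasma, 1 μM, 0–2 h; CD-1 MLM 0.1 mg/mL, 0.1 μM, 0–60 min; CD-1 hepatocytes 0.7 million cells/mL, 1 μM, 0–2 h. Parent remaining by HPLC-MS/MS relative to 0 h; t1/2 from initial log-linear slope assuming first-order kinetics; one run, duplicate samples.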

Data set [1] can be described thus: Metabolic stability in mouse liver microsomes (MLM). It counts as in vitro ADME, CD-1 mouse. Conditions: CD-1. In a few lines:
as §1
On the technique in general: Microsomes from liver hold many membrane-bound enzymes, among them those of drug oxidation.

Data set [2] in a line: Metabolic stability in mouse hepatocytes (MH). Type of data set: in vitro ADME, CD-1 mouse. To be noted: CD-1. How it is done: Plasma and metabolic stability tests were performed by Eurofins Discovery. For the plasma stability assay, test compounds were incubated in CD-1 mouse plasma for 0, 0.5, 1, 1.5, and 2 h at 37 °C at a concentration of 1 μM. For the metabolic stability assay, test compounds were incubated at 37 °C in either (1) CD-1 mouse liver microsomes (MLM) (0.1 mg/mL) at a concentration of 0.1 μM for 0, 15, 30, 45, and 60 min or (2) CD-1 mouse hepatocytes (MH) (0.7 million viable cells/mL) at a concentration of 1 μM for 0, 0.5, 1, 1.5, and 2 h. At the respective time points, acetonitrile was added to the incubation mixture followed by centrifugation. Samples were analyzed by HPLC-MS/MS and peak areas were recorded for each analyte. Compound stability, expressed as the percentage of parent compound remaining, was calculated by comparing the peak area of the compound at each time point relative to that of the 0h time point. Percentage compound remaining is plotted as a function of time as a logarithmic curve. Half-life (t 1/2) is estimated from the slope of the initial linear range of the curve, assuming first-order kinetics. […] Both plasma and metabolic assay experiments were performed once with 2 replicate samples each.

Data set [3] can be described thus: In vivo pharmacokinetics study. Conditions: for clearance / bioavailability: male, ICR (CD-1), mouse, plasma; for clearance: iv, 15 mg/kg, read-out: CLIV, mouse (in vivo systemic clearance); for clearance / CLIV, mouse (in vivo systemic clearance): IV 15 mg/kg, noncompartmental analysis; for bioavailability: mice, PO 30 mg/kg vs IV 15 mg/kg. More on the design: species or system ICR (CD-1) mice. The procedure: Both the in vivo pharmacokinetics and in vivo pharmacodynamics studies were performed by Eurofins Pharmacology Discovery Services. All mice were provided by BioLasco Taiwan (under Charles River Laboratories Licensee). Animals were acclimated for 3 days prior to use and were confirmed to be in good health. All aspects of this work including housing, experimentation, and animal disposal were performed in general accordance with the “Guide for the Care and Use of Laboratory Animals: Eighth Edition” (National Academies Press, Washington, DC. 2011) in a AAALAC-accredited laboratory animal facility. In addition, the animal care and use protocol was reviewed and approved by the IACUC at Eurofins Pharmacology Discovery Services; IN020-08202020 and ON002-07142023.
Male ICR (CD-1) mice, weighing 30 ± 5 g, were given intravenous (IV), intraperitoneal (IP) or oral gavage (PO) administrations of PROTACs at 15 mg/kg (IV and IP) or 30 mg/kg (PO). Dosing volumes used were 5 mL/kg (IV and IP) and 10 mL/kg (PO). The test compounds were dissolved in 5% DMSO/5% Solutol HS15/90% PBS. Serial blood samples were collected at 0.05, 0.167, 0.5, 1, 2, 4, 8, 12 h postadministration (an additional 24h sample was collected for IV-administered mice). Blood samples were collected from three animals at each time point via facial vein (±50 μL) for the first time points and cardiac puncture (±300 μL) for the final time point and stored in tubes coated with lithium heparin. Within 1h of collection, samples were mixed gently and centrifuged at 2500 g for 15 min at 4 °C. Plasma samples were then harvested and kept frozen at −70 °C until further processing. Samples were processed using acetonitrile precipitation and analyzed by LC–MS/MS. Mean plasma concentrations were plotted as a function of time and the fundamental PK parameters were obtained from a noncompartmental analysis (NCA) using WinNonlin. Free drug levels (C p,u) for SK4454 and SK5527 were calculated by factoring in their plasma protein binding (f u) values using the following formula: C p,u = C p * f u.

In general, microsomal CLint refers to a measure of how fast metabolising enzymes remove a compound, apart from limits set by blood flow. Broadly, the hepatocyte CLint is the capacity of the preparation to metabolise the compound, expressed as a volume cleared per time. Read a high hepatocyte CLint as faster metabolism. The term clearance denotes the rate of elimination divided by the concentration. For `O=C1CCC(Nc2ccc(N3CCN(C4CN(C(=O)[C@]5(Cc6cccc(Nc7nccs7)n6)CC[C@@H](Oc6cccc(Cl)c6F)CC5)C4)CC3)c(F)c2)C(=O)N1` (stereo partly shown) [PROTAC 18], in “Plasma stability assay”, the half-life at 1 μM was more than 2 h and the “plasma t1/2” value is more than 2 h. The microsomal CLint at 0.1 μM in data set [1] came out at 369 µL/min/mg. Also, in data set [2], the hepatocyte CLint at 1 μM is less than 4.1 µL/min/1e6 cells. Further, the clearance in data set [3] stood at 23 mL/min/kg.

On to `O=C1CCN(c2ccc(N3CCN(CC4CN(C(=O)[C@]5(Cc6cccc(Nc7nccs7)n6)CC[C@@H](Oc6cccc(Cl)c6F)CC5)C4)CC3)nc2)C(=O)N1` [PROTAC 23], for which, in “Plasma stability assay”, the half-life at 1 μM is more than 2 h and the “plasma t1/2” value is more than 2 h. The microsomal CLint at 0.1 μM in data set [1] came to 666 µL/min/mg. Also, in data set [2], the hepatocyte CLint at 1 μM was less than 4.1 µL/min/1e6 cells. For the same compound, in data set [3], the clearance was 35 mL/min/kg.

Consider `O=C1CCN(c2ccc(N3CCN(CC4CCN(C(=O)[C@]5(Cc6cccc(Nc7nccs7)n6)CC[C@@H](Oc6cccc(Cl)c6F)CC5)CC4)CC3)nc2)C(=O)N1` [PROTAC 24], for which, in the data set “Plasma stability assay”, the half-life at 1 μM is more than 2 h and the “plasma t1/2” value is more than 2 h. Also, the microsomal CLint at 0.1 μM in data set [1] amounted to 565 µL/min/mg. In data set [2], this compound showed a hepatocyte CLint at 1 μM of less than 4.1 µL/min/1e6 cells. Further, in data set [3], the clearance stood at 22 mL/min/kg.

For `Cc1cc(Nc2ccc(F)c(CC3(C(=O)N4CC(N5CCN(c6ccc(NC7CCC(=O)NC7=O)cc6F)CC5)C4)CCN(Cc4cccc(Cl)c4F)CC3)n2)n[nH]1` (stereo not shown) [PROTAC 29], in “Plasma stability assay”, the half-life at 1 μM is more than 2 h and the “plasma t1/2” value is more than 2 h. The same compound yielded a microsomal CLint at 0.1 μM in data set [1] of 438 µL/min/mg. This compound also came in with a hepatocyte CLint at 1 μM in data set [2] of less than 4.1 µL/min/1e6 cells. The clearance in data set [3] is 38 mL/min/kg.

Turning to `O=C1CCC(N2C(=O)c3cccc(OCCOCCOCCOCCNC(=O)[C@]4(Cc5cccc(Nc6nccs6)n5)CC[C@@H](Oc5cccc(Cl)c5F)CC4)c3C2=O)C(=O)N1` (stereo partly shown) [SK2188, reference compound], the half-life at 1 μM in the data set “Plasma stability assay” worked out at 1.12 h. The microsomal CLint at 0.1 μM in data set [1] was found to be 1390 µL/min/mg. The clearance in data set [3] worked out at 114 mL/min/kg.

What is called bioavailability is dose-corrected exposure relative to a reference, in per cent. In the case of `Cc1cc(Nc2ccc(F)c(CC3(C(=O)N4CCC(CN5CCN(c6ccc(N7CCC(=O)NC7=O)cn6)CC5)CC4)CCN(Cc4cccc(Cl)c4F)CC3)n2)n[nH]1` [SK4454], in “Plasma stability assay”, the half-life at 1 μM was more than 2 h and the “plasma t1/2” value is more than 2 h. The same compound returned a microsomal CLint at 0.1 μM in data set [1] of 437 µL/min/mg. Besides, the hepatocyte CLint at 1 μM in data set [2] was less than 4.1 µL/min/1e6 cells. The “CLIV, mouse (in vivo systemic clearance)” value in data set [3] (listed as PROTAC 32, 15 mg/kg) came to 18.1 mL/min/kg. Besides, in data set [3], the clearance amounted to 18 mL/min/kg and the bioavailability came out at 7%.

In the case of `Cc1cc(Nc2ccc(F)c(CC3(C(=O)N4CCC(F)(CN5CCN(c6ccc(N7CCC(=O)NC7=O)cn6)CC5)CC4)CCN(Cc4cccc(Cl)c4F)CC3)n2)n[nH]1` [SK5527], in the data set “Plasma stability assay”, the half-life at 1 μM is more than 2 h and the “plasma t1/2” value is more than 2 h. This compound had a microsomal CLint at 0.1 μM in data set [1] of 582 µL/min/mg. In addition, the hepatocyte CLint at 1 μM in data set [2] is 4.4 µL/min/1e6 cells. Moreover, in data set [3] (listed as PROTAC 33, 15 mg/kg), the “CLIV, mouse (in vivo systemic clearance)” value worked out at 12.2 mL/min/kg. In data set [3], the clearance is 12 mL/min/kg and the bioavailability is 11%.
